Tests used:
A549 tumor xenografts = assay: Human tumor xenograft growing s.c. in athymic nude mice; format: in vivo, athymic nude mouse; settings: 5×/week for 2 weeks, recorded on day 24, * = p<0.05
Method: (§1) Utilizing this model, one can measure the ability of test compounds to inhibit the growth of human tumor xenografts growing subcutaneously (s.c.) in athymic nude mice. The histologic tumor type employed was MDA-MB-435 breast carcinoma for Ex.1 and 7 and A549 non-small cell lung carcinoma for Ex. 1-3.
A549 non-small cell lung carcinoma: Treatments were started 17 d post-implantation (1×10^7 cells/mouse), when a mean tumor volume of approximately 120 mm^3 was reached. Ex. 1-3 were administered iv on days 17-21 (followed by 2 d rest, then a second cycle of treatment on days 24-28). Total daily doses of 10 or 30 μmol/kg were administered as a single injection. Data in this table were recorded on day 24, 3 d after the last treatment of the first cycle. An asterisk (*) indicates p<0.05 using a one-tailed Student's t-Test.
Toxicity was monitored by recording average group body weights twice weekly, and by daily observation of general health. Efficacy was monitored by taking measurements of tumor length, width, and depth weekly using digital calipers coupled to automated data collectors. […] Anti-tumor activity was expressed as % T/C(Δ MTV of treated group÷Δ MTV of control group×100%). Statistical significance was evaluated using a one-tailed Student's t-test (p<0.05).

[1] = tested on: MDA-MB-435 human breast carcinoma; assay: Anchorage Dependent Growth Monolayer Assay (ADGMA), MTS; format: cell-based; settings: MDA-MB-435, 72 h, 3-day exposure, MTS A490, read-out: IC50 (average±S.D.) MDA-MB-435
Method: As indicated above, all of the compounds of formula I, and their corresponding pharmaceutically acceptable acid addition salts, are anti-tumor agents and are, therefore, useful in inhibiting the growth of various lymphomas, sarcomas, carcinomas, myelomas, and leukemia cell lines. […]
The ADGMA compares the number of viable cells following a 3-day exposure to a test compound relative to a number of cells present at the time the test compound was added. […] The absorbance at 490 nm (A490) of the formazan derivative is proportional to the number of viable cells. […]
Cell lines are trypsinized and counted using a Coulter counter to determine plating densities. […] The number of cells plates as determined in preliminary experiments, results in cell densities of 75-90% of confluency by 4 days after plating. Initial cell densities, assayed one day after plating, are roughly 0.15-0.20 absorbance units greater than the media blank. […] A490 of control plates is read 4 h after MTS addition to determine initial cell density values for each cell line. Three days after addition of test compound, 10 μL/well of MTS mixture is added to the test plates and A490 is read 4 h later. A490 values for wells containing cells are corrected for media absorbance, then normalized to initial density readings to determine percent net growth. […]

[2] = tested on: MDA-MB-435 tumor xenografts; assay: Human tumor xenograft growing s.c. in athymic nude mice; format: in vivo, athymic nude mouse; settings: 3×/week for 3 weeks, * = p<0.05
Method: as §1
MDA-MB-435 human breast carcinoma: Treatments were started 15 d post implantation (3×10^6 cells/mouse), when a mean tumor volume of approximately 45 mm^3 was reached. Ex. 1 and 7 were administered iv at three times per week for 3 weeks (days 15, 17, 20, 22, 24, 27, 29, and 31), at 3.3, 10, and 33 μmol/kg. Doxorubicin was administered iv at 2 mg/kg using the same schedule. Each data point represents tumor growth (mean±SEM), or body weight (mean), with an initial group size of n=8, from a representative experiment performed twice. An asterisk (*) indicates p<0.05 using a one-tailed Student's t-test.
Toxicity was monitored by recording average group body weights twice weekly, and by daily observation of general health. Efficacy was monitored by taking measurements of tumor length, width, and depth weekly using digital calipers coupled to automated data collectors. Mean tumor volume (MTV) at initiation of therapy was subtracted from final MTV in order to express the actual tumor growth during treatment (Δ MTV). Anti-tumor activity was expressed as % T/C(Δ MTV of treated group÷Δ MTV of control group×100%). Statistical significance was evaluated using a one-tailed Student's t-test (p<0.05).

SMILES	% T/C (A549 tumor xenografts; 10 μmol/kg iv daily)	% T/C (A549 tumor xenografts; 30 μmol/kg iv daily)	IC50 [1]	% T/C ([2]; 3.3 μmol/kg iv)	% T/C ([2]; 10 μmol/kg iv)	% T/C ([2]; 33 μmol/kg iv)
CCCCCOC(=O)O[C@@H]1CC[C@H](NC(=O)[C@H](OC)[C@H](O)[C@@H](O)[C@H](O)/C=C/C(C)(C)C)C(=O)NC1 [Ex. 2, (2R,3R,4S,5R,6E)-3,4,5-trihydroxy-2-methoxy-8,8-dimethyl-N-[(3S,6R)-hexahydro-2-oxo-6-([[pentyloxy]carbonyl]oxy)-2H-azepin-3-yl]non-6-enonamide]	32* %	46* %				
CCCCCCCCCCCOCC(=O)O[C@@H]1CC[C@H](NC(=O)[C@H](OC)[C@H](O)[C@@H](O)[C@H](O)/C=C/C(C)(C)C)C(=O)NC1 [Ex. 7, (2R,3R,4S,5R,6E)-3,4,5-trihydroxy-2-methoxy-8,8-dimethyl-N-[(3S,6R)-hexahydro-2-oxo-6-([[undecyloxy]acetyl]oxy)-2H-azepin-3-yl]non-6-enonamide]			61 ± 95 nM	102%	64%	30* %
